Data from article PMC7880690, “Chemical genetics and proteome-wide site mapping reveal cysteine MARylation by PARP-7 on immune-relevant protein targets” (eLife, 2021).

What was measured:
[1] = target: T1, GFP-WT-PARP-7 (Homo sapiens, UniProt Q7Z3E1); assay: Labeling by orthogonal NAD+ analogs in HEK 293T lysates expressing GFP-WT-PARP-7; type: biochemical; conditions: HEK 293 T cell lysates, 100 µM NAD+ analog
T1 construct: expressed in transfected cells; host or cells: HEK 293T
T1 sequence (Q7Z3E1 1-657): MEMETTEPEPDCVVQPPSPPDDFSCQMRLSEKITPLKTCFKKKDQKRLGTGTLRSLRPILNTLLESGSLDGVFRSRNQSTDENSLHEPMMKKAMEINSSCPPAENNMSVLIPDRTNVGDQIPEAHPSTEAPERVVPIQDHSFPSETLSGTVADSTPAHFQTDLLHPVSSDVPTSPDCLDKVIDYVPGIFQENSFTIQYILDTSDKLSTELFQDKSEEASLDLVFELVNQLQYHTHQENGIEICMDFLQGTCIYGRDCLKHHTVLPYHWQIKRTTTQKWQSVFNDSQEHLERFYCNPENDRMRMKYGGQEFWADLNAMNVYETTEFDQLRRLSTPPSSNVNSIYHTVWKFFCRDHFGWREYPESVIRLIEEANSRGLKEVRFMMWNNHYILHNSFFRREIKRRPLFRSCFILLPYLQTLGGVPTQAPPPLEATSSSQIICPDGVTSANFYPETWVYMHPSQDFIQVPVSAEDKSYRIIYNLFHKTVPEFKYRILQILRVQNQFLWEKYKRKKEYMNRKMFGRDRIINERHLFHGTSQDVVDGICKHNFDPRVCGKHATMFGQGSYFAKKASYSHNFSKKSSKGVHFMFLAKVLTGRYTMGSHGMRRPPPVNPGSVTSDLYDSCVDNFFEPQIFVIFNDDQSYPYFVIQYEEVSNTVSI
Text: Figure 1. A chemical genetic strategy for identifying the direct MARylation targets of PARP-7. (a) Schematic of chemical genetic approach for identifying direct targets of PARP-7. (b) Crystal structure of human PARP1 bound to the non-hydrolyzable NAD^+ analog benzamide adenine dinucleotide (BAD). PDB: 6bhv. […] (c) Chemical structure of the clickable, orthogonal NAD^+ analogs. 5-Bn-2-e-NAD^+ is the optimized substrate for the floor position engineered PARP-7, IG-PARP-7. 5-Bn-6-a-NAD^+ was used in our previous studies by other floor position engineered PARPs (e.g. PARP14). (d) 5-Bn-2-e-NAD^+ is an efficient substrate for IG-PARP-7. HEK293T cells were transfected with either GFP-WT-PARP-7 (control) or GFP-IG-PARP-7. Cell lysates were prepared and incubated with either 5-Bn-2-e-NAD^+ or 5-Bn-6-a-NAD^+ (100 µM). Following copper-catalyzed click chemistry with biotin-azide, proteins were resolved by SDS-PAGE and biotinylated proteins were detected by Western blot detection using Streptavidin-HRP. Biotinylated proteins represent direct MARylation targets of PARP-7. Figure 1—figure supplement 1. Enrichment of PARP-7 MARylation targets and labeling of PARP-12 IG targets using a chemical genetic approach. (a) Labeling of PARP-7 MARylation targets was performed as described in Figure 1. Neutravidin agarose was used to enrich biotinylated proteins (i.e. MARylation targets). […]

[2] = target: T2, PARP-7 (Homo sapiens, UniProt Q7Z3E1)
T2 sequence (Q7Z3E1 1-657): T1 sequence (Q7Z3E1 1-657)

[3] = target: PARP2FL (Homo sapiens, UniProt Q9UGN5); assay: ADP-ribosylation plate assay, PARP2FL
[4] = target: T3, PARP11FL (Homo sapiens, UniProt Q9NR21); assay: ADP-ribosylation plate assay, PARP11FL
T3 sequence (Q9NR21 1-338): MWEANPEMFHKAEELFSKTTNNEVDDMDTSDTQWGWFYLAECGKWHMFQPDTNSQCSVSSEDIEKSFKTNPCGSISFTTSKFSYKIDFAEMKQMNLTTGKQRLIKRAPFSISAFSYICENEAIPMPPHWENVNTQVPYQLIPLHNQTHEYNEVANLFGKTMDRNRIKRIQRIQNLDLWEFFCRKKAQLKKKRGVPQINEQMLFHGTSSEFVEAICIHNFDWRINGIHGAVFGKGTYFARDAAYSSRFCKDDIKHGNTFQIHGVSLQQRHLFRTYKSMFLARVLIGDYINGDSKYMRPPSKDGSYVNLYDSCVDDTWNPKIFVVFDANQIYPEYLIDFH

[5] = target: T2, PARP-7; conditions: 1 μM, HEK 293 T cells

PARP2FL, sequence (Q9UGN5 whole entry): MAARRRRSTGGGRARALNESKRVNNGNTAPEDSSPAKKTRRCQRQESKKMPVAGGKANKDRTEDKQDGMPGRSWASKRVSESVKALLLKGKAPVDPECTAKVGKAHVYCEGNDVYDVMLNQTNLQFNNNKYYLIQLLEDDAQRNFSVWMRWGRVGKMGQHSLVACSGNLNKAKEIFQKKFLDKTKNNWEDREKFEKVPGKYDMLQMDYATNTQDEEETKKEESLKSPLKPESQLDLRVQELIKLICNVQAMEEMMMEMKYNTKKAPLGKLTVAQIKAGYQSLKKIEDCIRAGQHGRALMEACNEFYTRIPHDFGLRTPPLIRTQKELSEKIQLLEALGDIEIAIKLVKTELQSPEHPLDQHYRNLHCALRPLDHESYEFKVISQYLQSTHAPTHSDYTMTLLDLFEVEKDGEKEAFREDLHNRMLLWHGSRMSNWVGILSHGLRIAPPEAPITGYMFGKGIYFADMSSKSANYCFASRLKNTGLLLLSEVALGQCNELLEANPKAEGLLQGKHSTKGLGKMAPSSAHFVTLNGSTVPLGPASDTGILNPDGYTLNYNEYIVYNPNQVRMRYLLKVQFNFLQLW

With C#Cc1nc(N)c2ncn(C3OC(COP(=O)(O)OP(=O)([O-])OCC4OC([n+]5cc(Cc6ccccc6)cc(C(N)=O)c5)C(O)C4O)C(O)C3O)c2n1 (centres unmarked) [5-Bn-2-e-NAD^+, 5-benzyl-2-ethynyl-NAD^+] the “substrate for GFP-WT-PARP-7” value [1] was “not a substrate”.
Compound N#Cc1ccc(N2CCN(C(=O)c3cc(Cc4n[nH]c(=O)c5ccccc45)ccc3F)CC2)nc1 [Phthal01, 6-(4-(2-fluoro-5-((4-oxo-3,4-dihydrophthalazin-1-yl)methyl)benzoyl)piperazin-1-yl)nicotinonitrile] has an EC50 [2] of about 60 nM, an IC50 [3] of 28 nM and an IC50 [4] of 460 ± 20 nM. The “inhibition of PARP-7-mediated trans-MARylation of PARP-13.2” value [5] was “completely inhibits”.
